{
  "source": "paper PMC7461568",
  "about": "“Novel Cyclic Lipopeptide Antibiotics: Effects of Acyl Chain Length and Position” (International Journal of Molecular Sciences, 2020)",
  "tested_on": "K. pneumonia ATCC 13883",
  "assay_type": "cell-based, Klebsiella pneumoniae",
  "conditions": "K. pneumoniae ATCC 13883; MHB-II, inoculum 5 × 10^5 CFU/mL, 37 °C, 18–24 h, visual read-out, triplicate",
  "description": "In the original report on S3(B), MIC experiments were carried out by using non-cation-adjusted MHB-I media. To this, bovine serum albumin (BSA) and acetic acid were added. The rationale for choosing a medium without cations is that cation-adjusted media (MHB-II) in some cases causes substantial inhibition of the activity of cationic peptides. Furthermore, some peptides are at risk of precipitation when diluted into MHB medium, which can be avoided via the addition of BSA and acetic acid. However, the use of MHB-II is favorable to imitate the in vivo conditions as much as possible. Both media were tested with and without the addition of BSA and acetic acid by trial and error. The use of pure MHB-II was compatible with S3(B) and its fatty acid analogues, and therefore was chosen for the MIC determinations. Noticeably, MHB-I with BSA and acetic acid led to precipitation of lipopeptides in the present work.\nCation-adjusted Mueller-Hinton broth (MHB-II) media (BD BBLTM Beef extract powder, BD BactoTMCasamino acids, and DIFCO soluble starch was from Becton, Dickinson and Company©, Franklin Lakes, NJ, USA). MHB media supplemented with 0.2% BSA was from Sigma Aldrich (St. Louis, MO, USA) and 0.01% acetic acid from VWR®. The 96 well plate cell-culture cluster, round-bottom, polypropylene plates, and V-shaped 96 well polypropylene plates were purchased from Corning® Inc., Costar®, Corning, NY, USA. Microseal® film was obtained from Bio-Rad Laboratories, Inc., Hercules, CA, USA. A VersaMaxTM Tunable Microplate Reader (Molecular Devices LLC, Sunnyvale, CA, USA) was used and the data were evaluated on a Softmax® Pro (Molecular Devices LLC).\nThe MIC experiments were performed according to a protocol adapted from Wiegand et al., with minor modifications. The MICs were determined in triplicate. The peptides were dissolved in Milli-Q water to produce 10 mg/mL stock solutions in small glass containers. The bacterial isolates to be tested were streaked onto agar plates to obtain single colonies, and the plates were incubated at 37 °C for 18–24 h. The strains tested were S. aureus ATCC 29213, P. aeruginosa ATCC 27853, E. coli ATCC 25922, A. baumannii ATCC 19606, and K. pneumonia ATCC 13883. Test compounds were prepared in 2-fold dilutions in 50 μL volumes in polypropylene microtiter plates. Bacterial cultures grown to OD600 = 0.1–0.4 were diluted to a desired OD600 of 0.001–0.002 corresponding to 1 × 10^6 CFU/mL. Next, 50 μL bacterial suspension was added to the microtiter plates, giving a final bacterial inoculum of 5 × 10^5 CFU/mL per well. The plates were incubated at 37 °C for 18–24 h. […] The MIC values were visually evaluated, and the MIC was set to the lowest concentration […] based on triplicate measurements. […]",
  "note": "Where a SMILES comes first, the peptide text is derived from it. [ ]: non-standard residue; d: D form. The star is where a group is joined. 2Nal = N[C@@H](Cc1ccc2ccccc2c1)C(=O)O; Octanoyl = CCCCCCCC(=O)*; Dab = NCC[C@H](N)C(=O)O; AEEA = NCCOCCOCC(=O)O",
  "data": [
    {"compound": "CCCCCCCC(=O)NCC[C@@H]1NC(=O)[C@H](CCN)NC(=O)[C@H](CCCNC(=N)N)NC(=O)[C@H](Cc2ccc3ccccc3c2)NC(=O)[C@H](CCN)NC(=O)[C@H](CC(N)=O)NC(=O)[C@H](CCN)NC(=O)[C@H](Cc2ccc3ccccc3c2)NC(=O)COCCOCCNC1=O", "note": "[(C8)^5] (cyclo([Dab][2Nal]R[Dab][Dab](Octanoyl)[AEEA][2Nal][Dab]N))", "values": [
      {"measurement": "Minimum inhibitory concentration, KP", "value": ">64", "unit": "µg/mL"}
    ]}
  ]
}
